From ChEMBL document CHEMBL1135222, “Anionic cyclophanes as potential reversal agents of muscle relaxants by chemical chelation” (Bioorg Med Chem Lett, 2002)

Key:
Format in all cases: functional, organism-based
Gallus gallus [1] = species on record: Gallus gallus; test: Concentration that produced 50% reversal of gallamine induced neuromuscular block in the chick biventer assay
Gallus gallus [2] = species on record: Gallus gallus; test: Tested for association constant against gallamine relaxant in chick biventer muscle preparation
Gallus gallus [3] = species on record: Gallus gallus; test: Concentration that produced 50% reversal of pancuronium induced neuromuscular block in the chick biventer assay
Gallus gallus [4] = species on record: Gallus gallus; test: Tested for association constant against pancuronium relaxant in chick biventer muscle preparation
Gallus gallus [5] = species on record: Gallus gallus; test: Tested for the reversion of vecuronium-induced block in chick biventer assay

Compound | EC50 (Gallus gallus [1]) | Ka (Gallus gallus [2]) | EC50 (Gallus gallus [3]) | Ka (Gallus gallus [4]) | EC50 (Gallus gallus [5])
O=C(O)c1cc2ccc1OCc1ccc3cc(ccc3c1)COc1ccc(cc1C(=O)O)Cc1ccc(c(C(=O)O)c1)OCc1ccc3cc(ccc3c1)COc1ccc(cc1C(=O)O)C2 | 104 µM | 13200 M⁻¹ | 40 µM | 10400 M⁻¹ | –
O=C(O)c1cc2ccc1OCCCCCOc1ccc(cc1C(=O)O)Cc1ccc(c(C(=O)O)c1)OCCCCCOc1ccc(cc1C(=O)O)C2 | 1030 µM | 608 M⁻¹ | 142 µM | 167 M⁻¹ | –
O=C(O)c1cc2ccc1OCc1ccc(cc1)COc1ccc(cc1C(=O)O)Cc1ccc(c(C(=O)O)c1)OCc1ccc(cc1)COc1ccc(cc1C(=O)O)C2 | 563 µM | 3280 M⁻¹ | 292 µM | 2500 M⁻¹ | –
CN(C)C(=O)Oc1cccc([N+](C)(C)C)c1 [NEOSTIGMINE BROMIDE] | – | – | – | – | 0.028 µM
